From BindingDB's records for doi:10.1021/acs.jmedchem.9b01169 (Boehringer Ingelheim Rcv, 2019)

Assay: Inhibition of wild type EGFR in mouse BAF3 cells assessed as reduction in cell proliferation incubated for 72 hrs by Celltiter-Glo luminescent cell viability assay

| Compound | IC50 [nM] |
| --- | --- |
| CC(C)(O)Cn1/c(=N/C(=O)c2ccnc(-c3ccccc3)c2)[nH]c2ccccc21 | > 10000 |
| Cn1cc(-c2cc(C(=O)/N=c3\[nH]c4ccccc4n3CC(C)(C)O)ccn2)cn1 | 5100 |
| Cc1cc2cc(n1)-c1cnn(C)c1OCCCCCN1/C(=N/C2=O)Nc2ccccc21 | 2300 |
| COc1ccncc1-c1cc(C(=O)/N=c2\[nH]c3ccccc3n2CC(C)(C)O)ccn1 | 700 |
| O=C1/N=C2\Nc3ccccc3N2CCCCCOc2ccccc2-c2cc1ccn2 | 1300 |
| Cn1ncc2c1OCCCCCN1/C(=N/C(=O)c3cc(F)nc-2c3)Nc2ccccc21 | 270 |
| Cc1cc2cc(n1)-c1cnn(C)c1OCCC[C@@H](C)CN1/C(=N/C2=O)Nc2ccccc21 | 1100 |
